Test [1] relates to U4/U6 snRNA construct 79 nt (No. 2, K-turn disrupted) (RNA, junction) GGCCUUAUGCACGGGAAAUACGCAUAUCGUAAGAUUGUGUUUUUGCUGGUGUAAAUCAGCAGUUCCCCUGCAUAAGGCU
Nature of the test: SPR. The conditions noted are these: 1x PBS; pH 7.4, 0.005% Tween 20, 5% DMSO; no binding up to 50 μM.

The test system of test [2] is U4/U6 snRNA construct 92 nt (WT, No. 1), Cy5 (RNA, junction) GGCCUUAUGCACGGGAAAUACGCAUAUCAGUGAGGAUUCGUCCGAGAUUGUGUUUUUGCUGGUGUAAAUCAGCAGUUCCCCUGCAUAAGGCU
Description: EMSA. The settings on record: 150 mM NaCl; 20 mM Tris-Cl pH 7.6, 0.1% Triton X-100, 2 mM DTT; 1 μM Snu13 protein displaced.

The target in test [3] is U4/U6 snRNA construct (92 nt). Nature of the test: SPR binding to U4/U6 snRNA construct (92 nt). Further details: species or system yeast. The settings on record: 92 nt RNA, steady-state fit; >100 = signal appeared at 100 μM but failed to fit. On the procedure:
(§1) SPR experiments were carried out using an SPR optical biosensor (BIAcore 3000, Cytiva, USA) based on reported methods with minor modifications.[35] To avoid RNA degradation during long-time injections, the whole microfluidic system was washed by priming 50% RNase Zap buffer and RNase-free water one day before the experiments. Then, by using running buffer (1xPBS, pH7.4, 0.005% Tween 20, 5% DMSO) at a flow rate of 5 μL/min, the binding assays were performed. In brief, a CM5 chip surface coated with carboxylated dextran was activated by standard EDC/NHS amine-coupling protocol and then conjugated with streptavidin (200 ng/mL in 10 mM sodium acetate buffer, pH 4.5) for 30 min, resulting in 4000~6000 response units (RUs) signal. After streptavidin conjugation, the surface was deactivated (1 M ethanolamine, pH 8.5) for 10 min and regenerated (10 mM NaOH) for 2 min to remove unbound SA. Then, the folded U4/U6 RNA with biotin-label at 5′ end was prepared (according to the above-mentioned method) at 5 μM and injected in flow-cell (Fc) 2 for 30 min while Fc1 was kept blank as a reference. Then, the system continued flowing the running buffer until the baseline was stable before future steps.
To detect binding between small molecules and U4/U6 snRNA, a 50 μL compound solution was applied to both Fc1 and Fc2 channels simultaneously at a higher flow rate (25 μL/min). The binding curve contains 120 s association and 200 s dissociation. A pulse of 10 mM NaOH injection was used for regeneration if needed. To measure the dissociation constant (KD), titrations of compound solutions with a serial dilution were applied. The KD value was then calculated by fitting the binding curves based on a steady-state model in BIAevaluation 4.0 software and plotted in GraphPad Prism 9.
For orientation: SPR reads the build-up and loss of mass on a sensor chip optically.

Test [4] deals with U4/U6 79-nt snRNA construct. Nature of the test: SPR binding test with 79 nt RNA lacking the K-turn. On the set-up: species or system yeast. The settings on record: 79 nt RNA that disrupts the 5′ SL; until 50 μM. On the procedure:
as §1, with “Then, the folded U4/U6 RNA with biotin-label at 5′ end was prepared (according to the above-mentioned method) at 5 μM and injected in flow-cell (Fc) 2 for 30 min while Fc1 was kept blank as a reference. Then, the system continued flowing the running buffer until the baseline was stable before future steps.” left out
To detect binding between small molecules and U4/U6 snRNA, a 50 μL compound solution was applied to both Fc1 and Fc2 channels simultaneously at a higher flow rate (25 μL/min). […] The KD value was then calculated by fitting the binding curves based on a steady-state model in BIAevaluation 4.0 software and plotted in GraphPad Prism 9.

Test [5] concerns the target U4/U6 92-nt RNA construct. Description: MST binding to U4/U6 92-nt RNA. On the set-up: species or system yeast. The settings on record: 50 nM Cy5-labeled 92-nt RNA. The protocol: (§2) MST experiments were conducted using a Monolith NT.115 system (NanoTemper, Germany) as described previously.[36] 5′-Cy5-labeled U4/U6 RNA was folded as above-mentioned and diluted to 100 nM (2x) in a working buffer. For RNA-small molecule interactions, compounds were prepared in the running buffer (with 10% DMSO) and mixed with RNA in a 1:1 (v/v) ratio, resulting in 50 nM RNA and 5% DMSO in the final solution. Then, MST scanning was performed in triplicate using a red LED channel to obtain the binding signals. Binding affinity (KD) was determined by fitting the concentration-dependent curve in the T-jump region according to the 1:1 Langmuir binding model (MO.Affinity Analysis v2.3).

In test [6] the test system is Snu13-U4/U6 RNA interaction. Description: KD shift assay by MST (protein-RNA inhibition). The conditions noted are these: 10 μM compound vs no compound. It is filed as binding, yeast. The protocol: as §2
For the protein-RNA inhibition assay, Snu13 protein was prepared in the running buffer (10 mM HEPES, pH 7.4, 150 mM NaCl, and 0.005% Tween 20) at different concentrations ranging from 0 μM to 5 μM. Meanwhile, a compound at a designated concentration was added to the annealed RNA solution. Then, the test solutions were prepared by 1:1 (v/v) mixing the protein and RNA-small molecule samples, followed by the standard MST procedure mentioned above.

Test [7] concerns Snu13-U4/U6 RNA interaction. Nature of the test: EMSA of Snu13-U4/U6 RNA complex. It is filed as biochemical, yeast. The settings on record: 1 μM Snu13, compound 0.5 to 20 μM, gel band quantification; read-out: IC50 (RNA-protein complex formation). On the procedure: The 5′-end Cy5 labeled U4U6 RNA in 11.25 mM KPO4 pH 7.0, 310 mM KCl, and 5 mM EDTA was folded based on the above-mentioned method. The folded RNA was incubated with 1 μM Snu13 protein in the buffer containing 20 mM Tris-Cl pH 7.6, 150 mM NaCl, and 0.1% of Triton X-100 and 2 mM DTT for 30 min at room temperature. Then the compound (0.5 μM to 20 μM) was added to the samples and incubated at room temperature for 15 min. The samples were loaded into the 8% native PAGE gel and visualized by AMERSHAM TYPHOON Biomolecular Imager. Image J software was used for image processing. RNA-protein complex formation in the presence of increasing concentration of compound 22 was calculated by quantifying the higher molecular weight band intensity and normalized to the band intensity of RNA-protein complex in the absence of compound. Values reported are the average of three replicates. The half-maximal inhibitory concentration (IC50) was determined by fitting the data in inhibitor dose–response curves in GraphPad Prism 9. Quantitative data were presented as the mean ± SEM.
On the technique in general: A gel shift assay detects complexes by their altered migration in electrophoresis.

For test [8], the system named is U4/U6 snRNA construct 92 nt (WT, No. 1) (RNA, junction) GGCCUUAUGCACGGGAAAUACGCAUAUCAGUGAGGAUUCGUCCGAGAUUGUGUUUUUGCUGGUGUAAAUCAGCAGUUCCCCUGCAUAAGGCU
Nature of the test: SPR steady state. The conditions noted are these: 1x PBS; pH 7.4, 0.005% Tween 20, 5% DMSO.

The subject of test [9] is U4/U6 snRNA construct 92 nt (WT, No. 1), Cy5 (RNA, junction) GGCCUUAUGCACGGGAAAUACGCAUAUCAGUGAGGAUUCGUCCGAGAUUGUGUUUUUGCUGGUGUAAAUCAGCAGUUCCCCUGCAUAAGGCU
Description: MST (T-jump, 1:1 fit). The conditions noted are these: running buffer, 5% DMSO, 50 nM RNA.

In test [10] the test system is U4U6 RNA for SHAPE-MaP (T7 transcript of Template) (RNA, junction) GGGCCUUCGGGCCAAGGCCUUAUGCACGGGAAAUACGCAUAUCAGUGAGGAUUCGUCCGAGAUUGUGUUUUUGCUGGUGUAAAUCAGCAGUUCCCCUGCAUAAGGCUUCGAUCCGGUUCGCCGGAUCCAAAUCGGGCUUCGGUCCGGUUC
Description: SHAPE-MaP / deltaSHAPE (2A3). The settings on record: KCl (3.3x folding buffer: 1023 mM); potassium phosphate pH 7.0, EDTA; 100 μM compound.

The subject of test [11] is NHP2L1 (Snu13) and U4 5′ SL. Further details: method as in PMID 28985478. The settings on record: cited from earlier work.

Molecules are shown by their SMILES. “Also recorded” adds a separate entry of the source.

Regarding `CN(C)CCNc1nnc(-c2nc(-c3ccc(F)cc3)no2)c2ccccc12` [Compound 22], the binding result in test [1] is “no”; in test [10], “yes”. Moreover, the IC50 in [2] and in [7] was 3.2 ± 0.4 µM throughout. Moreover, the Kd in test [3] is 3.9 ± 2.2 µM; in test [5] it was 9.1 ± 0.6 µM. Further, the “SPR binding to 79 nt RNA” value in test [4] is given as “did not show any binding”. In addition, the “fold weaker Snu13 affinity” value in test [6] turned out to be 13 fold. In addition, the KD came to 3.9 ± 2.2 µM in test [8] and 9.1 ± 0.6 µM in test [9].
As to `CC[C@@]1(O)C(=O)OCc2c1cc1n(c2=O)Cc2cc3c(CN(C)C)c(O)ccc3nc2-1` [topotecan], the “effect on NHP2L1-U4 5′ SL interaction” value in [11] is given as “inhibit the interaction; also recorded: disrupts the binding”.

What is called IC50 is the concentration that inhibits the measured activity by half. In general, Kd refers to a measure of binding affinity in units of concentration. Low readings indicate tighter binding, high ones weaker binding. As a reminder, the KD is the concentration at which binding is half-saturated. A lower KD goes with higher affinity.

The values above are taken from doi:10.1101/2025.10.10.681657 (bioRxiv, 2025).
